Data published in patent US11427541B2, “Salt forms of a complement component C5A receptor” (CHEMOCENTRYX, INC., priority 2019, dated 2022).
Structures can show the parent of a compound that is named as a salt.

Assays:
[1] = in vivo rat PK study, aqueous liquid suspension with 0.5% w/v Hydroxypropyl Cellulose and 0.5% w/v Poloxamer F-68 (Example 8); details: oral 10 mg/kg of Compound 1, 5 mL/kg
Description: (§1) An in vivo rat PK study was conducted to compare the PK profile and bioavailability of the free base crystalline form of Compound 1 against various salt forms of Compound 1 in an aqueous liquid suspension formulation, which contained 0.5% w/v Hydroxypropyl Cellulose (Klucel GF grade) and 0.5% w/v Poloxamer F-68 (BASF Kolliphor P188). Each animal was orally administrated 10 mg/kg of Compound 1 at 5 mL/kg dosing volume (a dosing concentration of 2 mg/mL).

[2] = in vivo rat PK study, aqueous liquid suspension with 1% HPMC (Example 9); details: oral 10 mg/kg of Compound 1, 5 mL/kg, suspension in 1% HPMC
Description: as §1, with “1% HPMC.” for “0.5% w/v Hydroxypropyl Cellulose (Klucel GF grade) and 0.5% w/v Poloxamer F-68 (BASF Kolliphor P188).”

[3] = stability of the crystals on storage and heating (HPLC, LCMS, NMR, XRPD); type: physicochemical; details: for decomposition on storage (HPLC, LCMS and NMR analysis): 40° C. and 75% relative humidity for 45 days; for physical form by XRPD before and after the stability tests: both samples of the stability tests
Description: The stability of the collected crystals were tested by storing the crystals at 40° C. and 75% relative humidity for 45 days.

[4] = as above; type: physicochemical
[5] = hygroscopicity and physical stability by dynamic vapor sorption (DVS); type: physicochemical; details: for DVS weight change from 5% to 95% relative humidity (RH): 5% to 95% RH; for DVS weight change from about 0% RH to about 55% relative humidity: about 0% to about 55% RH; for change in XRPD before and after the DVS measurement: data not shown; for DVS weight change from about 0% RH to about 75% relative humidity: about 0% to about 75% RH
Description: To evaluate the hygroscopicity and physical stability of the collected crystals under different humidity, dynamic vapor sorption (DVS) data was collected at 25° C. after the sample was pre-equilibrated at 0% RH to remove unbounded water. DVS was measured using a VTI SGA-100 Vapor Sorption Analyzer. Sorption and desorption data was collected over a range from 5% to 95% RH at 10% RH increments under a nitrogen purge. The equilibrium criterion used for analysis was less than 0.0100% weight change in 5 minutes with a maximum equilibrium time of 3 hours. [table]

[6] = suspension in 0.5% HPC / 0.5% Poloxamer F-68
[7] = listed as Crystalline Napadisylate
[8] = 55° C. in a vacuum oven for 24 h
[9] = 75° C. for 1 week (open to air)
[10] = 25° C., listed as Napadisylate Salt of Compound 1 (Form I)
[11] = in vivo, po, 10 mg/kg, suspension in 0.5% HPC / 0.5% Poloxamer F-68
[12] = in vivo, po, 10 mg/kg, suspension in 0.5% HPC / 0.5% Poloxamer F-68, read-out: AUC0-t
[13] = in vivo, po, 10 mg/kg, suspension in 0.5% HPC / 0.5% Poloxamer F-68, read-out: Cmax
[14] = in vivo, po, 10 mg/kg, read-out: AUC0-t
[15] = in vivo, po, 10 mg/kg, read-out: Cmax
[16] = listed as Crystalline Edisylate
[17] = listed as Crystalline Camsylate
[18] = listed as Crystalline Napsylate
[19] = 25° C., listed as Napsylate Salt of Compound 1 (Form I)

Row | AUC0-t [1, 6] [ng·h/mL] | AUCinf [1, 6] [ng·h/mL] | Cmax [1, 6] [ng/mL] | physical form by XRPD before and after the stability tests [3] | change in XRPD before and after the DVS measurement [5] | SMILES | decomposition on storage (HPLC, LCMS and NMR analysis) [3] | decomposition on heating (HPLC, LCMS and NMR analysis) [4, 8] | decomposition on heating (HPLC, LCMS and NMR analysis) [4, 9] | further results
1 | 3417 | 3478 | 718 | remained the same | No change in XRPD | Cc1ccc(NC(=O)[C@H]2CCCN(C(=O)c3c(C)cccc3F)[C@H]2c2ccc(NC3CCCC3)cc2)cc1C(F)(F)F [Napadisylate Salt (Form I), N-cyclopentyl-4-((2R,3S)-1-(2-fluoro-6-methylbenzoyl)-3-((4-methyl-3-(trifluoromethyl)phenyl)-carbamoyl)piperidin-2-yl)benzenaminium naphthalene-1,5-disulfonate] | did not result in any appreciable decomposition | did not result in any appreciable decomposition | did not result in any appreciable decomposition | AUC0-t [2, 7]: 5856 ng·h/mL; AUCinf [2, 7]: 7743 ng·h/mL; Cmax [2, 7]: 753 ng/mL; DVS weight change from 5% to 95% relative humidity (RH) [5, 10]: 1.42%; DVS weight change from about 0% RH to about 55% relative humidity [5, 10]: about 0.6%
2 | 2839 | 3197 | 435 |  |  | Cc1ccc(NC(=O)[C@H]2CCCN(C(=O)c3c(C)cccc3F)[C@H]2c2ccc(NC3CCCC3)cc2)cc1C(F)(F)F [Edisylate Salt (Form I), N-cyclopentyl-4-((2R,3S)-1-(2-fluoro-6-methylbenzoyl)-3-((4-methyl-3-(trifluoromethyl)phenyl)carbamoyl)piperidin-2-yl)benzenaminium ethane-1,2-disulfonate] |  |  |  | AUC0-t [2, 16]: 2126 ng·h/mL; AUCinf [2, 16]: 2162 ng·h/mL; Cmax [2, 16]: 525 ng/mL
3 |  |  |  | remained the same | No change in XRPD | Cc1ccc(NC(=O)[C@H]2CCCN(C(=O)c3c(C)cccc3F)[C@H]2c2ccc(NC3CCCC3)cc2)cc1C(F)(F)F.Cc1ccc(S(=O)(=O)O)cc1 [Tosylate Salt (Form I), N-cyclopentyl-4-((2R,3S)-1-(2-fluoro-6-methylbenzoyl)-3-((4-methyl-3-(trifluoromethyl)phenyl)-carbamoyl)piperidin-2-yl)benzenaminium 4-methylbenzenesulfonate] | did not result in any appreciable decomposition | did not result in any appreciable decomposition | did not result in any appreciable decomposition | AUC(0-inf) [1, 11]: 4150 ng·h/mL; AUC0-t [1, 12]: 4040 ng·h/mL; Cmax [1, 13]: 591 ng/mL; AUC(0-inf) ([2]; in vivo, po, 10 mg/kg): 3370 ng·h/mL; AUC0-t [2, 14]: 3310 ng·h/mL; Cmax [2, 15]: 649 ng/mL; DVS weight change from 5% to 95% relative humidity (RH) ([5]; 25° C.): 0.83%; DVS weight change from about 0% RH to about 75% relative humidity ([5]; 25° C.): about 0.58%
4 | 4876 | 5057 | 778 | remained the same | No change in XRPD | Cc1ccc(NC(=O)[C@H]2CCCN(C(=O)c3c(C)cccc3F)[C@H]2c2ccc(NC3CCCC3)cc2)cc1C(F)(F)F [Napsylate Salt (Form I), N-cyclopentyl-4-((2R,3S)-1-(2-fluoro-6-methylbenzoyl)-3-((4-methyl-3-(trifluoromethyl)phenyl)-carbamoyl)piperidin-2-yl)benzenaminium naphthalene-2-sulfonate] | did not result in any appreciable decomposition | did not result in any appreciable decomposition | did not result in any appreciable decomposition | AUC0-t [2, 18]: 4277 ng·h/mL; AUCinf [2, 18]: 4589 ng·h/mL; Cmax [2, 18]: 601 ng/mL; DVS weight change from 5% to 95% relative humidity (RH) [5, 19]: 0.65%; DVS weight change from about 0% RH to about 55% relative humidity [5, 19]: about 0.2%

The remaining lines, values behind:

Row | SMILES | AUC0-t [1, 6] [ng·h/mL] | AUCinf [1, 6] [ng·h/mL] | Cmax [1, 6] [ng/mL] | physical form by XRPD before and after the stability tests [3] | change in XRPD before and after the DVS measurement [5] | decomposition on storage (HPLC, LCMS and NMR analysis) [3] | decomposition on heating (HPLC, LCMS and NMR analysis) [4, 8] | decomposition on heating (HPLC, LCMS and NMR analysis) [4, 9] | further results
5 | Cc1ccc(NC(=O)[C@H]2CCCN(C(=O)c3c(C)cccc3F)[C@H]2c2ccc(NC3CCCC3)cc2)cc1C(F)(F)F.O=S(=O)(O)c1ccccc1 [Besylate Salt (Form I), N-cyclopentyl-4-((2R,3S)-1-(2-fluoro-6-methylbenzoyl)-3-((4-methyl-3-(trifluoromethyl)phenyl)-carbamoyl)piperidin-2-yl)benzenaminium benzenesulfonate] |  |  |  | remained the same | No change in XRPD | did not result in any appreciable decomposition | did not result in any appreciable decomposition | did not result in any appreciable decomposition | AUC(0-inf) [1, 11]: 2600 ng·h/mL; AUC0-t [1, 12]: 2510 ng·h/mL; Cmax [1, 13]: 493 ng/mL; AUC(0-inf) ([2]; in vivo, po, 10 mg/kg): 2220 ng·h/mL; AUC0-t [2, 14]: 2170 ng·h/mL; Cmax [2, 15]: 390 ng/mL; DVS weight change from 5% to 95% relative humidity (RH) ([5]; 25° C.): 0.73%; DVS weight change from about 0% RH to about 75% relative humidity ([5]; 25° C.): about 0.5%
6 | Cc1ccc(NC(=O)[C@H]2CCCN(C(=O)c3c(C)cccc3F)[C@H]2c2ccc(NC3CCCC3)cc2)cc1C(F)(F)F [Camsylate Salt (Form I), N-cyclopentyl-4-((2R,3S)-1-(2-fluoro-6-methylbenzoyl)-3-((4-methyl-3-(trifluoromethyl)phenyl)-carbamoyl)piperidin-2-yl)benzenaminium (1S)-(+)-10-camphorsulfonate] | 3870 | 3922 | 738 | remained the same | No change in XRPD | did not result in any appreciable decomposition | did not result in any appreciable decomposition | did not result in any appreciable decomposition | AUC0-t [2, 17]: 2877 ng·h/mL; AUCinf [2, 17]: 3005 ng·h/mL; Cmax [2, 17]: 553 ng/mL; DVS weight change from 5% to 95% relative humidity (RH) ([5]; 25° C., listed as Camsylate Salt of Compound 1 (Form I)): 0.96%; DVS weight change from about 0% RH to about 65% relative humidity ([5]; 25° C., about 0% to about 65% RH): about 0.35%
7 | Cc1ccc(NC(=O)[C@H]2CCCN(C(=O)c3c(C)cccc3F)[C@H]2c2ccc(NC3CCCC3)cc2)cc1C(F)(F)F [Crystalline Free Base, (2R,3S)-2-(4-(cyclopentylamino)phenyl)-1-(2-fluoro-6-methylbenzoyl)-N-(4-methyl-3-(trifluoromethyl)phenyl)piperidine-3-carboxamide] |  |  |  |  |  |  |  |  | AUC0-t [2]: 1361 ng·h/mL; AUCinf [2]: 1377 ng·h/mL; Cmax [2]: 168 ng/mL
